{"source": "paper PMC10725504", "about": "“The co-crystal structure of Cbl-b and a small-molecule inhibitor reveals the mechanism of Cbl-b inhibition” (Communications Biology, 2023)", "target": "T1, Cbl-b (Homo sapiens, UniProt Q13191)", "T1 construct": "gene CBLB; TKBD-LHR-RING (38–427) and full-length (1–982)", "T1 sequence (Q13191 38-427)": "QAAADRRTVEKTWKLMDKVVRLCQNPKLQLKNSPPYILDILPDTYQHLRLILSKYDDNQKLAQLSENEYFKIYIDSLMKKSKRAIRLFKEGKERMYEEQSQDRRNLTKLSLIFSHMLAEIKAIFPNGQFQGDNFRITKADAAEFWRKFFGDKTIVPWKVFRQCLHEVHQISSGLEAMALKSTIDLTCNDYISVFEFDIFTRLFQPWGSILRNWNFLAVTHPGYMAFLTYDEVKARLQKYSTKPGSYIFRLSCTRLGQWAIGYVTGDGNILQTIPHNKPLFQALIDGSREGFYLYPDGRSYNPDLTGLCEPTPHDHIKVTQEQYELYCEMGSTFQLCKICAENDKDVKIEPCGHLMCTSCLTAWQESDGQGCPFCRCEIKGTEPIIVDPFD", "experiment": "FP-based displacement assay (fluorescent probe)", "type": "binding"}
{"smiles": "CC1=CC(C)=[N+]2C1=Cc1ccc(CCC(=O)NCCOCCOCCOCCNCc3ccc(C(=O)Nc4cccc([C@H](C)Cc5nncn5C)c4)nc3C3CC3)n1[B-]2(F)F", "note": "[C7102]", "values": [{"measurement": "FP-based displacement assay (fluorescent probe)", "result": "C7683 displaced binding of C7102 to both TKBD-LHR-RING and full-length proteins in a concentration dependent manner"}]}
